Structures can show the parent of a compound that is named as a salt.
Tests used:
Type in all cases: biochemical
[1] = biological target: T1, BTK-WT (Homo sapiens, UniProt Q06187); assay: Btk in vitro inhibitory activity (one of Method A TR-FRET, Method B electrophoretic mobility shift, Method C radiometric filter binding); details: Table 10, Formula A-I; read-out: BTK-WT (IC50)
T1 construct: purified from insect cells as a full-length construct containing an N-terminal 6X-His tag; His6 (N); made in house; host or cells: insect cells (baculovirus Sf21 in Method B)

[2] = biological target: T2, JAK3 (Homo sapiens, UniProt P52333); assay: Inhibition of a panel of kinases, in vitro HotSpot kinase assay: JAK3; details: Table 10, Formula A-I; 1 μM ATP; read-out: JAK3 (IC50)
T2 sequence (P52333 1-1124): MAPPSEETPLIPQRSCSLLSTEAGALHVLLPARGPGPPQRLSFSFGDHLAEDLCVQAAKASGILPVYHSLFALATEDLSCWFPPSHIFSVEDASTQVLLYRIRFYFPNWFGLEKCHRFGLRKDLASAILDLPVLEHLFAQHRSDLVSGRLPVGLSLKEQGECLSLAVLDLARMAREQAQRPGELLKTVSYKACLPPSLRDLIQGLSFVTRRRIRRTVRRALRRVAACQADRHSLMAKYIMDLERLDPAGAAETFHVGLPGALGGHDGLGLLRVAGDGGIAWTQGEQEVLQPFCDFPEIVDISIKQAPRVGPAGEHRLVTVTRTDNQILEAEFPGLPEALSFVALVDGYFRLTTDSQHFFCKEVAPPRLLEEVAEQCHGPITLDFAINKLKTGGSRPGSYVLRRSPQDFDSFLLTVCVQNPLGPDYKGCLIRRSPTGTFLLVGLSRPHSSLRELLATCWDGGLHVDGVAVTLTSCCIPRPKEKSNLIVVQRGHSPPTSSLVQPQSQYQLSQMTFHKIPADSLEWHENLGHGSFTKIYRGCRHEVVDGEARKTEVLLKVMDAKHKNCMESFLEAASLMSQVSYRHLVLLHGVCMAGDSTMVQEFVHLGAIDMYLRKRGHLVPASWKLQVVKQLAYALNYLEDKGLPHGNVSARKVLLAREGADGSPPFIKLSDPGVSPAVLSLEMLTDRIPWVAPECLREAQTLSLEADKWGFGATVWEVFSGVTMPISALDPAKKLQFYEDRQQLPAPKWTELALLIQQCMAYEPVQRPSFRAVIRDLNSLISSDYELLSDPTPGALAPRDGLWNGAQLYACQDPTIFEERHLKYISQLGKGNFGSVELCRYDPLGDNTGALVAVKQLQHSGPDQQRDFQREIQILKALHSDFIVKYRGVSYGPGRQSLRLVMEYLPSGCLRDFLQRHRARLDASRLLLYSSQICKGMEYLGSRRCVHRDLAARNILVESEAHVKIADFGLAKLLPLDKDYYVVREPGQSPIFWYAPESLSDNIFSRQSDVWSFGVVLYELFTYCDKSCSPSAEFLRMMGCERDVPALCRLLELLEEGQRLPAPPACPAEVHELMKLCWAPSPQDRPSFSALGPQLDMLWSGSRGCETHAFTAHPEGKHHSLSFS

[3] = biological target: LCK (Homo sapiens, UniProt P06239); assay: Inhibition of a panel of kinases, in vitro HotSpot kinase assay: LCK; details: Table 10, Formula A-I; 1 μM ATP; read-out: LCK (IC50)
Sequence of LCK (P06239 whole entry): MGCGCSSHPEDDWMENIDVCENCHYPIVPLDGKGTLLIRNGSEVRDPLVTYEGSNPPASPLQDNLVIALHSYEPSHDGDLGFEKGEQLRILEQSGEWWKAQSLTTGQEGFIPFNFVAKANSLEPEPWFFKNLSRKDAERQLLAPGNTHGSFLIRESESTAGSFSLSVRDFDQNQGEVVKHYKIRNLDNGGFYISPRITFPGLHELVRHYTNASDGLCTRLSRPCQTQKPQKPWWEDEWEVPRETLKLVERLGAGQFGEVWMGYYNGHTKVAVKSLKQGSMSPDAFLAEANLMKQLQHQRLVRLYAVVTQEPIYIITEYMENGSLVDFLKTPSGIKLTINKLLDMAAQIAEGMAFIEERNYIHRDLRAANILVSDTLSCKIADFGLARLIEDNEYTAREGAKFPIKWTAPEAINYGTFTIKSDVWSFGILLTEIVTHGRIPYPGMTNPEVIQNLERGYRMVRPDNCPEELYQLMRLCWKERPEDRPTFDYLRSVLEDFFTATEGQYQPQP

T1 sequence (Q06187 whole entry): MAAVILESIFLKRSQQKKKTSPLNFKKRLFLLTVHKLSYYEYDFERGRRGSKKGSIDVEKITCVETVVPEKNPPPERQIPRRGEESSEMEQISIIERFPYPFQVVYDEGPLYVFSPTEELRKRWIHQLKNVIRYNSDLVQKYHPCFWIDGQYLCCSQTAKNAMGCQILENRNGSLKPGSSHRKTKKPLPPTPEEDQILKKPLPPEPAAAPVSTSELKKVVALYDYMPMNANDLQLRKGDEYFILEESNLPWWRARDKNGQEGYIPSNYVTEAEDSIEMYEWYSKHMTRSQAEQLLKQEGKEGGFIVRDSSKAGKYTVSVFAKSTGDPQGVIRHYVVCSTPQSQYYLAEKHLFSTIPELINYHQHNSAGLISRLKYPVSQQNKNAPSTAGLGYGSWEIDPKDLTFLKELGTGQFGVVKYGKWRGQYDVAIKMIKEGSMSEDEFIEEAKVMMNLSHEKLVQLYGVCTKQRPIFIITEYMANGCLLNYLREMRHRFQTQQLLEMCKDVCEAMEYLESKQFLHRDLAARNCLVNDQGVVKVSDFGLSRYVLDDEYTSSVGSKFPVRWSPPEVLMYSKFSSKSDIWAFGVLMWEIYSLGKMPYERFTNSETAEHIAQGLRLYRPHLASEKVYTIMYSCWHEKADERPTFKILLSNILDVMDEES

Row | SMILES | IC50 [1] | IC50 [2] | IC50 [3]
1 | Cc1cc(Nc2nc(N3CCC[C@@H](NC(=O)C4CCCCC4)C3)cnc2C(N)=O)sn1 [Example A-28, 5-[(3R)-3-cyclohexaneamidopiperidin-1-yl]-3-[(3-methyl-1,2-thiazol-5-yl)amino]pyrazine-2-carboxamide] | ≤ 0.1 µM | 1 to 10 µM | 0.1 to 1 µM
2 | Cc1cc(Nc2nc(N3CCC[C@@H](NC(=O)c4ccncc4)C3)cnc2C(N)=O)sn1 [Example A-29, 3-[(3-methyl-1,2-thiazol-5-yl)amino]-5-[(3R)-3-(pyridine-4-amido)piperidin-1-yl]pyrazine-2-carboxamide] | ≤ 0.1 µM | 0.1 to 1 µM | 1 to 10 µM
3 | Cc1cc(Nc2nc(N3CCC[C@@H](NC(=O)c4ccc(C(C)C)cc4)C3)cnc2C(N)=O)sn1 [Example A-30, 3-[(3-methyl-1,2-thiazol-5-yl)amino]-5-[(3R)-3-[4-(propan-2-yl)benzamido]piperidin-1-yl]pyrazine-2-carboxamide] | ≤ 0.1 µM | 1 to 10 µM | > 10 µM
4 | CCn1ccc2cc(C(=O)N[C@@H]3CCCN(c4cnc(C(N)=O)c(Nc5cc(C)ns5)n4)C3)ccc21 [Example A-31, N-[(3R)-1-{5-carbamoyl-6-[(3-methyl-1,2-thiazol-5-yl)amino]pyrazin-2-yl}piperidin-3-yl]-1-ethyl-1H-indole-5-carboxamide] | ≤ 0.1 µM | 0.1 to 1 µM | 0.1 to 1 µM
5 | Cc1cc(Nc2nc(N3CCC[C@@H](NC(=O)c4ccc(C5CC5)cc4)C3)cnc2C(N)=O)sn1 [Example A-32, 5-[(3R)-3-(4-cyclopropylbenzamido)piperidin-1-yl]-3-[(3-methyl-1,2-thiazol-5-yl)amino]pyrazine-2-carboxamide] | ≤ 0.1 µM | 1 to 10 µM | > 10 µM
6 | Cc1cccc(C(=O)N[C@@H]2CCCN(c3cnc(C(N)=O)c(Nc4cc(C)ns4)n3)C2)c1 [Example A-33, 3-[(3-methyl-1,2-thiazol-5-yl)amino]-5-[(3R)-3-(3-methylbenzamido)piperidin-1-yl]pyrazine-2-carboxamide] | ≤ 0.1 µM | 1 to 10 µM | 0.1 to 1 µM
7 | Cc1cc(Nc2nc(N3CCC[C@@H](NC(=O)c4ccc(N(C)C)nc4)C3)cnc2C(N)=O)sn1 [Example A-34, 5-[(3R)-3-[6-(dimethylamino)pyridine-3-amido]piperidin-1-yl]-3-[(3-methyl-1,2-thiazol-5-yl)amino]pyrazine-2-carboxamide] | ≤ 0.1 µM | 1 to 10 µM | 1 to 10 µM
8 | Cc1cc(Nc2nc(N3CCC[C@@H](NC(=O)c4ccc(F)cc4F)C3)cnc2C(N)=O)sn1 [Example A-36, 5-[(3R)-3-(2,4-difluorobenzamido)piperidin-1-yl]-3-[(3-methyl-1,2-thiazol-5-yl)amino]pyrazine-2-carboxamide] | ≤ 0.1 µM | > 10 µM | > 10 µM
9 | CN(C)c1ccc(C(=O)N[C@@H]2CCCN(c3cnc(C(N)=O)c(Nc4ccc(S(C)(=O)=O)cc4)n3)C2)cc1 [Example A-44, 5-[(3R)-3-[4-(dimethylamino)benzamido]piperidin-1-yl]-3-[(4-methanesulfonylphenyl)amino]pyrazine-2-carboxamide] | ≤ 0.1 µM | 1 to 10 µM | > 10 µM
10 | NC(=O)c1ncc(N2CCC[C@@H](NC(=O)c3ccccc3)C2)nc1Nc1ccc2ncccc2c1 [Example A-45, 5-[(3R)-3-benzamidopiperidin-1-yl]-3-[(quinolin-6-yl)amino]pyrazine-2-carboxamide] | ≤ 0.1 µM | 1 to 10 µM | > 10 µM
11 | CN(C)c1ccc(C(=O)N[C@@H]2CCCN(c3cnc(C(N)=O)c(Nc4ccc5ncccc5c4)n3)C2)cc1 [Example A-46, 5-[(3R)-3-[4-(dimethylamino)benzamido]piperidin-1-yl]-3-[(quinolin-6-yl)amino]pyrazine-2-carboxamide hydrochloride] | ≤ 0.1 µM | 1 to 10 µM | > 10 µM
12 | CN(C)C(=O)N[C@@H]1CCCN(c2cnc(C(N)=O)c(Nc3ccc4ncccc4c3)n2)C1 [Example A-47, 5-[(3R)-3-[(dimethylcarbamoyl)amino]piperidin-1-yl]-3-[(quinolin-6-yl)amino]pyrazine-2-carboxamide] | ≤ 0.1 µM | 1 to 10 µM | > 10 µM
13 | CC1(c2ccc(Nc3nc(N4CCC[C@@H](NC(=O)c5ccccc5)C4)cnc3C(N)=O)cc2)CCN(C2CC2)CC1 [Example A-48, 5-[(3R)-3-benzamidopiperidin-1-yl]-3-{[4-(1-cyclopropyl-4-methylpiperidin-4-yl)phenyl]amino}pyrazine-2-carboxamide] | ≤ 0.1 µM | < 0.1 µM | < 0.1 µM
14 | CN(C)c1ccc(C(=O)N[C@@H]2CCCN(c3cnc(C(N)=O)c(Nc4ccc(C5(C)CCN(C6CC6)CC5)cc4)n3)C2)cc1 [Example A-49, 3-{[4-(1-cyclopropyl-4-methylpiperidin-4-yl)phenyl]amino}-5-[(3R)-3-[4-(dimethylamino)benzamido]piperidin-1-yl]pyrazine-2-carboxamide] | ≤ 0.1 µM | 0.1 to 1 µM | < 0.1 µM
15 | Cc1cc(Nc2nc(N3CC[C@@H](NC(=O)c4ccccc4)C3)cnc2C(N)=O)sn1 [Example A-50, 5-[(3R)-3-benzamidopyrrolidin-1-yl]-3-[(3-methyl-1,2-thiazol-5-yl)amino]pyrazine-2-carboxamide] | 0.1 to 1 µM | > 10 µM | 1 to 10 µM
16 | Cc1cc(Nc2nc(N3CC[C@@H](NC(=O)N(C)C)C3)cnc2C(N)=O)sn1 [Example A-51, 5-[(3R)-3-[(dimethylcarbamoyl)amino]pyrrolidin-1-yl]-3-[(3-methyl-1,2-thiazol-5-yl)amino]pyrazine-2-carboxamide] | 1 to 10 µM | > 10 µM | > 10 µM
17 | Cc1cc(Nc2nc(N3CCC[C@@H](N4CCN(c5cccc(Cl)c5)C4=O)C3)cnc2C(N)=O)sn1 [Example A-52, 5-[(3R)-3-[3-(3-chlorophenyl)-2-oxoimidazolidin-1-yl]piperidin-1-yl]-3-[(3-methyl-1,2-thiazol-5-yl)amino]pyrazine-2-carboxamide] | ≤ 0.1 µM | 0.1 to 1 µM | < 0.1 µM
18 | CS(=O)(=O)c1ccc(Nc2nc(N3CCC[C@@H](N4CCN(c5cccc(Cl)c5)C4=O)C3)cnc2C(N)=O)cc1 [Example A-53, 5-[(3R)-3-[3-(3-chlorophenyl)-2-oxoimidazolidin-1-yl]piperidin-1-yl]-3-[(4-methanesulfonylphenyl)amino]pyrazine-2-carboxamide] | ≤ 0.1 µM | 1 to 10 µM | < 0.1 µM
19 | Cc1cc(Nc2nc(N3CCC[C@H](NC(=O)c4ccc(N(C)C)cc4)[C@@H]3C)cnc2C(N)=O)sn1 [Example A-54, 5-[(2S,3S)-3-[4-(dimethylamino)benzamido]-2-methylpiperidin-1-yl]-3-[(3-methyl-1,2-thiazol-5-yl)amino]pyrazine-2-carboxamide] | ≤ 0.1 µM | 1 to 10 µM | 0.1 to 1 µM
20 | Cc1cc(Nc2nc(N3CCC[C@H](NC(=O)N(C)C)[C@@H]3C)cnc2C(N)=O)sn1 [Example A-58, 5-[(2S,3S)-3-[(dimethylcarbamoyl)amino]-2-methylpiperidin-1-yl]-3-[(3-methyl-1,2-thiazol-5-yl)amino]pyrazine-2-carboxamide] | ≤ 0.1 µM | 1 to 10 µM | 1 to 10 µM
21 | C[C@@H]1[C@H](NC(=O)N(C)C)CCCN1c1cnc(C(N)=O)c(Nc2ccc3ncccc3c2)n1 [Example A-59, 5-[(2R,3R)-3-[(dimethylcarbamoyl)amino]-2-methylpiperidin-1-yl]-3-[(quinolin-6-yl)amino]pyrazine-2-carboxamide] | ≤ 0.1 µM | 1 to 10 µM | 0.1 to 1 µM
22 | C[C@H]1[C@@H](NC(=O)N(C)C)CCCN1c1cnc(C(N)=O)c(Nc2ccc3ncccc3c2)n1 [Example A-60, 5-[(2S,3S)-3-[(dimethylcarbamoyl)amino]-2-methylpiperidin-1-yl]-3-[(quinolin-6-yl)amino]pyrazine-2-carboxamide] | 0.1 to 1 µM | 1 to 10 µM | > 10 µM

From patent publication US20210070748A1, “INHIBITORS OF BRUTONS TYROSINE KINASE” (Pharmacyclics LLC, priority 2015, published 2021)
